Common to all, as to type: cell-based
The subject of one test is HCC827 cells. Briefly: Cell growth inhibition (CellTiter-Glo, 3 days) in HCC827. As to conditions: Homo sapiens, 72 h, 3 days after administration. An outline of the steps:
(§1)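 HCC827 cells in RPMI/10% FBS and A431 cells in DMEM/10% FBS were seeded at 5000 cells/well and left overnight. Compound was then added over a concentration range for 3 days of incubation, and viability was read by CellTiter-Glo luminescence.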
In general terms: ATP-based viability assays read luminescence as a measure of living cells.

Test [1] relates to HCC827-SVD cells (human EGFR exon 20 insertion mutant D770_N771 insSVD). Briefly: Cell growth inhibition (CellTiter-Glo, 3 days) in HCC827-SVD. The settings on record: 72 h, 3 days after administration. The gist of the method:
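HCC827 cells carrying lentiviral codon-optimized EGFR D770_N771 insSVD, with endogenous EGFR knocked out by CRISPR (single clone), seeded at 5000 cells/well in RPMI with 10% FBS. Viability read by CellTiter-Glo luminescence.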

In test [2] the test system is HCC827-ASV cells (human EGFR exon 20 insertion mutant A769_D770insASV). Briefly: Cell growth inhibition (CellTiter-Glo, 3 days) in HCC827-ASV. As to conditions: 72 h, 3 days after administration. The gist of the method: (§2)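 HCC827 cells lentivirally transduced with codon-optimized ASV or YVMA insertion mutants were seeded at 5000 cells/well in RPMI with 10% FBS and incubated overnight. Compound was added at various concentrations from a 10× stock in medium, with 3 days' incubation. Viability read by CellTiter-Glo luminescence.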

Test [3] relates to HCC827-YVMA cells (human ERBB2 exon20 insertion mutant A775_G776ins YVMA). The experiment in a line: Cell growth inhibition (CellTiter-Glo, 3 days) in HCC827-YVMA. As to conditions: 72 h, 3 days after administration. The gist of the method:
as §2

The next test concerns A431 cells. Briefly: Cell growth inhibition (CellTiter-Glo, 3 days) in A431. As to conditions: Homo sapiens, A-431, 72 h, 3 days after administration. An outline of the steps: as §1

The term GI50 denotes the concentration at which growth is held to half of that of the control. For the molecule `C=CC(=O)N1CCC(Nc2cc3c(Nc4ccc(Oc5nc(-c6ccc(OC)nc6)cs5)cc4F)ncnc3cc2OC)CC1` [Example 55, 1-(4-((4-((2-fluoro-4-((4-(6-methoxypyridin-3-yl)thiazol-2-yl)oxy)phenyl)amino)-7-methoxyquinazolin-6-yl)amino)piperidin-1-yl)prop-2-en-1-one], the GI50 with HCC827 cells is below 0.03 µM; in test [1] it was below 0.03 µM; in test [2] it was below 0.03 µM; in test [3] it was below 0.03 µM; with A431 cells, 0.1 to 0.3 µM.

`C=CC(=O)N1CCC(Nc2cc3c(Nc4ccc(Oc5nc(-c6ccc(OC)nn6)cs5)cc4F)ncnc3cc2OC)CC1` [Example 56, 1-(4-((4-((2-fluoro-4-((4-(6-methoxypyridazin-3-yl)thiazol-2-yl)oxy)phenyl)amino)-7-methoxyquinazolin-6-yl)amino)piperidin-1-yl)prop-2-en-1-one]: the GI50 was 0.03 to 0.06 µM in the test with HCC827 cells; below 0.03 µM in test [1]; below 0.03 µM in test [2]; below 0.03 µM in test [3]; below 0.03 µM in the test on A431 cells.

Consider `C=CC(=O)N1CCC(Nc2cc3c(Nc4ccc(Oc5ccn(-c6cccc(OC)n6)n5)cc4F)ncnc3cc2OC)CC1` [Example 58, 1-(4-((4-((2-fluoro-4-((1-(6-methoxypyridin-2-yl)-1H-pyrazol-3-yl)oxy)phenyl)amino)-7-methoxyquinazolin-6-yl)amino)piperidin-1-yl)prop-2-en-1-one], for which the GI50 in the test with HCC827 cells was 0.06 to 0.1 µM; in test [1], 0.06 to 0.1 µM; in test [2], 0.06 to 0.1 µM; in test [3], 0.06 to 0.1 µM; with A431 cells it was 0.3 to 0.6 µM.

Take `C=CC(=O)N1CCC(Nc2cc3c(Nc4ccc(Oc5ccn(-c6ccc(OC)cn6)n5)cc4F)ncnc3cc2OC)CC1` [Example 59, 1-(4-((4-((2-fluoro-4-((1-(5-methoxypyridin-2-yl)-1H-pyrazol-3-yl)oxy)phenyl)amino)-7-methoxyquinazolin-6-yl)amino)piperidin-1-yl)prop-2-en-1-one]: the GI50 lay in the range of 0.06 to 0.1 µM in the test on HCC827 cells; 0.06 to 0.1 µM in test [1]; 0.03 to 0.06 µM in test [2]; 0.03 to 0.06 µM in test [3]; 0.1 to 0.3 µM in the test on A431 cells.

For `C=CC(=O)N1CCC(Nc2cc3c(Nc4ccc(Oc5ccn(-c6cnc(C)c(F)c6)n5)c(F)c4)ncnc3cc2OC)CC1` [Example 86, 1-(4-((4-((3-fluoro-4-((1-(5-fluoro-6-methylpyridin-3-yl)-1H-pyrazol-3-yl)oxy)phenyl)amino)-7-methoxyquinazolin-6-yl)amino)piperidin-1-yl)prop-2-en-1-one], the GI50 is 0.03 to 0.06 µM with HCC827 cells; 0.03 to 0.06 µM in test [1]; 0.06 to 0.1 µM in test [2]; 0.03 to 0.06 µM in test [3]; 0.06 to 0.1 µM with A431 cells.

Regarding `C=CC(=O)N1CCC(Nc2cc3c(Nc4ccc(Oc5ncc(-c6cnc(C)c(F)c6)s5)cc4F)ncnc3cc2OC)CC1` [Example 88, 1-(4-((4-((2-fluoro-4-((5-(5-fluoro-6-methylpyridin-3-yl)thiazol-2-yl)oxy)phenyl)amino)-7-methoxyquinazolin-6-yl)amino)piperidin-1-yl)prop-2-en-1-one], the GI50 with HCC827 cells was 0.03 to 0.06 µM; in test [1], 0.1 to 0.3 µM; in test [2], 0.06 to 0.1 µM; in test [3], 0.03 to 0.06 µM; in the test with A431 cells it was at least 1 µM.

As for `C=CC(=O)N1CCC(Nc2cc3c(Nc4ccc(Oc5ccn(-c6ccc(C)nc6F)n5)cc4F)ncnc3cc2OC)CC1` [Example 89, 1-(4-((4-((2-fluoro-4-((1-(2-fluoro-6-methylpyridin-3-yl)-1H-pyrazol-3-yl)oxy)phenyl)amino)-7-methoxyquinazolin-6-yl)amino)piperidin-1-yl)prop-2-en-1-one], the GI50 is 0.03 to 0.06 µM in the test with HCC827 cells; below 0.03 µM in test [1]; below 0.03 µM in test [2]; below 0.03 µM in test [3]; 0.6 to 1 µM in the test on A431 cells.

In the case of `C=CC(=O)N1CCC(Nc2cc3c(Nc4ccc(Oc5ccn(-c6cnc(OC)c(F)c6)n5)cc4F)ncnc3cc2OC)CC1` [Example 90, 1-(4-((4-((2-fluoro-4-((1-(5-fluoro-6-methoxypyridin-3-yl)-1H-pyrazol-3-yl)oxy)phenyl)amino)-7-methoxyquinazolin-6-yl)amino)piperidin-1-yl)prop-2-en-1-one], the GI50 lay within 0.06 to 0.1 µM in the test on HCC827 cells; 0.06 to 0.1 µM in test [1]; 0.1 to 0.3 µM in test [2]; 0.06 to 0.1 µM in test [3]; 0.1 to 0.3 µM in the test with A431 cells.

Consider `C=CC(=O)N1CCC(Nc2cc3c(Nc4ccc(Oc5ccn(-c6cnc7ccccc7c6)n5)cc4F)ncnc3cc2OC)CC1` [Example 91, 1-(4-((4-((2-fluoro-4-((1-(quinolin-3-yl)-1H-pyrazol-3-yl)oxy)phenyl)amino)-7-methoxyquinazolin-6-yl)amino)piperidin-1-yl)prop-2-en-1-one], for which the GI50 with HCC827 cells fell in the range of 0.1 to 0.3 µM; in test [1], 0.03 to 0.06 µM; in test [2], 0.06 to 0.1 µM; in test [3] it was 0.1 to 0.3 µM; in the test with A431 cells it was 0.1 to 0.3 µM.

Turning to `C=CC(=O)N1CCC(Nc2cc3c(Nc4ccc(Oc5ccn(-c6cnc(C)nc6)n5)cc4F)ncnc3cc2OC)CC1` [Example 92, 1-(4-((4-((2-fluoro-4-((1-(2-methylpyrimidin-5-yl)-1H-pyrazol-3-yl)oxy)phenyl)amino)-7-methoxyquinazolin-6-yl)amino)piperidin-1-yl)prop-2-en-1-one], the GI50 in the test on HCC827 cells is 0.06 to 0.1 µM; in test [1] it was below 0.03 µM; in test [2], below 0.03 µM; in test [3] it was below 0.03 µM; with A431 cells, 0.1 to 0.3 µM.

Take `C=CC(=O)N1CCC(Nc2cc3c(Nc4ccc(Oc5ccn(-c6ccc(C)c(F)n6)n5)cc4F)ncnc3cc2OC)CC1` [Example 93, 1-(4-((4-((2-fluoro-4-((1-(6-fluoro-5-methylpyridin-2-yl)-1H-pyrazol-3-yl)oxy)phenyl)amino)-7-methoxyquinazolin-6-yl)amino)piperidin-1-yl)prop-2-en-1-one]: the GI50 in the test with HCC827 cells was 0.06 to 0.1 µM; in test [1] it was 0.06 to 0.1 µM; in test [2], 0.03 to 0.06 µM; in test [3], 0.03 to 0.06 µM; in the test on A431 cells it was at least 1 µM.

In the case of `C=CC(=O)N1CCC(Nc2cc3c(Nc4ccc(Oc5nc(-c6cnc(C)c(F)c6)cs5)cc4F)ncnc3cc2OC)CC1` [Example 94, 1-(4-((4-((2-fluoro-4-((4-(5-fluoro-6-methylpyridin-3-yl)thiazol-2-yl)oxy)phenyl)amino)-7-methoxyquinazolin-6-yl)amino)piperidin-1-yl)prop-2-en-1-one], the GI50 in the test on HCC827 cells was 0.03 to 0.06 µM; in test [1], 0.1 to 0.3 µM; in test [2], 0.03 to 0.06 µM; in test [3], 0.03 to 0.06 µM; in the test on A431 cells it was at least 1 µM.

`C=CC(=O)N1CCC(Nc2cc3c(Nc4ccc(OCc5ccccn5)c(Cl)c4)ncnc3cc2OCCN2CCOCC2)CC1` [Example 95, 1-(4-((4-((3-chloro-4-(pyridin-2-ylmethoxy)phenyl)amino)-7-(2-morpholinoethoxy)quinazolin-6-yl)amino)piperidin-1-yl)prop-2-en-1-one]: the GI50 with HCC827 cells is below 0.03 µM; in test [1], below 0.03 µM; in test [2], below 0.03 µM; in test [3], below 0.03 µM; with A431 cells it was 0.1 to 0.3 µM.

As for `C=CC(=O)N1CCC(Nc2cc3c(Nc4ccc(OCc5ccccn5)c(Cl)c4)ncnc3cc2OCCN(C)C)CC1` [Example 96, 1-(4-((4-((3-chloro-4-(pyridin-2-ylmethoxy)phenyl)amino)-7-(2-(dimethylamino)ethoxy)quinazolin-6-yl)amino)piperidin-1-yl)prop-2-en-1-one], the GI50 with HCC827 cells was in the range of 0.06 to 0.1 µM; in test [1], 0.1 to 0.3 µM; in test [2] it was 0.1 to 0.3 µM; in test [3], 0.1 to 0.3 µM; in the test on A431 cells, 0.3 to 0.6 µM.

Regarding `C=CC(=O)N1CCC(Nc2cc3c(Nc4ccc(Oc5ccnc(-c6nc(C)cs6)c5)cc4F)ncnc3cc2OC)CC1` [Example 98, 1-(4-((4-((2-fluoro-4-((2-(4-methylthiazol-2-yl)pyridin-4-yl)oxy)phenyl)amino)-7-methoxyquinazolin-6-yl)amino)piperidin-1-yl)prop-2-en-1-one], the GI50 in the test with HCC827 cells is 0.06 to 0.1 µM; in test [1], below 0.03 µM; in test [2], below 0.03 µM; in test [3] it was below 0.03 µM; in the test with A431 cells it was 0.1 to 0.3 µM.

In the case of `C=CC(=O)N1CCC(Nc2cc3c(Nc4ccc(Oc5ccnc(-c6ncc(C)s6)c5)cc4F)ncnc3cc2OC)CC1` [Example 99, 1-(4-((4-((2-fluoro-4-((2-(5-methylthiazol-2-yl)pyridin-4-yl)oxy)phenyl)amino)-7-methoxyquinazolin-6-yl)amino)piperidin-1-yl)prop-2-en-1-one], the GI50 with HCC827 cells fell in the range of 0.06 to 0.1 µM; in test [1], 0.06 to 0.1 µM; in test [2] it was 0.03 to 0.06 µM; in test [3], 0.03 to 0.06 µM; with A431 cells, 0.6 to 1 µM.

Turning to `C=CC(=O)N1CCC(Nc2cc3c(Nc4ccc(Oc5ccnc(N6CCCC6)c5)cc4F)ncnc3cc2OC)CC1` [Example 102, 1-(4-((4-((2-fluoro-4-((2-(pyrrolidin-1-yl)pyridin-4-yl)oxy)phenyl)amino)-7-methoxyquinazolin-6-yl)amino)piperidin-1-yl)prop-2-en-1-one], the GI50 in the test with HCC827 cells lay in the range of 0.1 to 0.3 µM; in test [1], 0.06 to 0.1 µM; in test [2], 0.1 to 0.3 µM; in test [3], 0.1 to 0.3 µM; with A431 cells it was 0.1 to 0.3 µM.
